In patent US9180111B2, “Reduction in complement activation and inflammation during tissue injury by carotenoids, carotenoid analogs, or derivatives thereof” (Cardax Pharma, Inc., priority 2005, dated 2015):

What was measured:
[1] = tested on: rabbit complement system; test: Complement-mediated red blood cell (RBC) hemolysis assay, ex vivo, rabbit plasma on human erythrocytes; format: in vivo; details: plasma after 3 h reperfusion, 50 mg/kg, 4 days; p<0.01
Protocol: A red blood cell (RBC) lysis assay was used to determine whether the pretreatment with DDA compared to placebo-treated animals was able to inhibit the rabbit complement system. The ex vivo analysis of complement activity is based on the C5b-9-dependent lysis of human red blood cells upon exposure to rabbit plasma. Complement-mediated RBC hemolysis was assessed by a turbidometric method described previously (Pascual et al., 1990). The hemolysis assay is an accepted method of assessing the complement titer of plasma or serum samples (Whaley, 1985). Rabbit plasma was obtained from whole blood samples drawn from rabbits that were pretreated with DDA (50 mg/kg, 4 days, n=5) or sterile 0.9% sodium chloride solution (4 days, n=5). After obtaining informed consent, human whole blood for the isolation of red blood cells was obtained by venipuncture of the forearm vein of a healthy donor who had not been exposed to any medication for the past seven days. The cells were washed three times in 10 ml phosphate buffered saline (PBS, pH 7.4) and diluted in PBS to achieve a final RBC concentration of 1×10^8 cells/ml. The assay was initiated by the addition of 15 μl of diluted human RBCs to 185 μl of rabbit plasma, and the light transmittance was monitored for 5 min. The final assay volume was 200 μl. […]

[2] = Plasma and tissue concentrations of non-esterified, free astaxanthin at the end of reperfusion; format: in vivo, rabbit; details: rabbits, DDA 50 mg/kg i.v. for 4 days, end of 3 h reperfusion
Text: To determine the plasma and tissue concentrations of non-esterified, free astaxanthin in blood and organs, samples were taken at the end of reperfusion in selected rabbits (n=5) treated with DDA, and determined by methods previously described (Osterlie et al., 2000). Non-esterified, free astaxanthin, in vivo, is generated after cleavage of the water-dispersible disuccinate diester to monosuccinate, and subsequently to non-esterified, free astaxanthin by the intrinsic esterase activity of serum albumin (Curry et al., 1999), or by non-specific esterase activity in plasma and solid organs (Jensen et al., 1999). Non-esterified, free astaxanthin then accumulates in myocardium and other tissues after plasma clearance in a dose-dependent manner after both oral (Showalter et al., 2004) and intravenous administration (Gross and Lockwood 2004a,b).

[3] = Determination of aqueous solubility/dispersibility; format: physicochemical; details: deionized water
Protocol: (§1) 30.13 mg of 3 was added to 1 mL of USP-purified water. The sample was rotated for 2 hours, then centrifuged for 5 minutes. After centrifuging, solid was visible in the bottom of the tube. A 125-μL aliquot of the solution was then diluted to 25 mL. The sample was analyzed by UV/Vis spectroscopy at 436 nm, and the absorbance was compared to a standard curve compiled from 4 standards of known concentration. The concentration of the original supernatant was calculated to be 2.85 mg/mL and the absorptivity was 36.94 AU*mL/cm*mg. Slight error may have been introduced by the small size of the original aliquot.
as §1, with “Next, 30.80” for “30.13”, “9” for “3”, “411” for “436”, “29.27” for “2.85”, “2.90” for “36.94”

[4] = tested on: mongrel canines; details: 50 mg/kg i.v., four days; cited from earlier work
[5] = tested on: superoxide anion; test: Direct superoxide anion scavenging by EPR spectroscopy (DEPMPO spin-trap) in PMA-stimulated isolated human neutrophils; format: cell-based; details: aqueous phase
Protocol: Human polymorphonuclear leukocytes (PMNs) were isolated from freshly sampled venous blood of a single volunteer by Percoll density gradient centrifugation as described previously. Briefly, each 10 mL of whole blood was mixed with 0.8 mL of 0.1 M EDTA and 25 mL of saline. The diluted blood was then layered over 9 mL of Percoll at a specific density of 1.080 g/mL. After centrifugation at 400×g for 20 min at 20° C., the plasma, mononuclear cell, and Percoll layers were removed. Erythrocytes were subsequently lysed by addition of 18 mL of ice-cold water for 30 s, followed by 2 mL of 10×PIPES buffer (25 mM PIPES, 110 mM NaCl, and 5 mM KCl, titrated to pH 7.4 with NaOH). Cells were then pelleted at 4° C., the supernatant was decanted, and the procedure was repeated. […] Afterward, PMNs were counted by light microscopy on a hemocytometer. […] The microwave frequency was measured with a Model 575 microwave counter (EIP Microwave, Inc., San Jose, Calif.). […]
Instrument settings used in the spin-trapping experiments were as follows: modulation amplitude, 0.32 G; time constant, 0.16 s; scan time, 60 s; modulation frequency, 100 kHz; microwave power, 20 milliwatts; and microwave frequency, 9.76 GHz. The samples were placed in a quartz EPR flat cell, and spectra were recorded. The component signals in the spectra were identified and quantified as reported previously.

Q: With `CC1=C(/C=C/C(C)=C/C=C/C(C)=C/C=C/C=C(C)/C=C/C=C(C)/C=C/C2=C(C)C(=O)C(OC(=O)CCC(=O)O)CC2(C)C)C(C)(C)CC(OC(=O)CCC(=O)O)C1=O` (stereo not drawn) [DDA, disodium disuccinate astaxanthin] as the compound, how does the “rabbit plasma-induced human erythrocyte hemolysis versus placebo” value [1] read?
A: significantly attenuated

Q: And the “mean myocardial tissue concentration of non-esterified astaxanthin” value [2]?
A: > 10 µM

Q: What about the “mean plasma concentration of non-esterified, free astaxanthin” value [2] of the same compound?
A: 222 ± 51 nM

Q: And the maximum aqueous dispersibility [3]?
A: greater than 10 mM

Q: And the mean myocardial salvage [4]?
A: 68%

Q: And the “direct aqueous superoxide anion scavenging” value [5]?
A: potent direct scavengers of superoxide anion
